From patent publication US12077555B2, “STAT degraders and uses thereof” (Kymera Therapeutics, Inc., priority 2019, dated 2024)

Tests used:
SUP-M2 cells = test: CellTiter-Glo cell viability, SUP-M2; assay type: cell-based
SU-DHL-1 tumor cells = test: Xenograph tumor study, SU-DHL-1; assay type: in vivo, NOD SCID mice; conditions: for tumor volume, 5 days / tumor volume, 10 days / tumor volume, 15 days / tumor volume, 20 days: SUDHL-1 xenograph, 2.5-30 mg/kg, 2 days on/5 days off
Protocol: Animals: 50 6-8 week old female NOD SCID mice weighing 18 to 20 grams. 25 mice were used in each study.
Method for Tumor Inoculation: Each mouse was inoculated subcutaneously with SU-DHL-1 tumor cells (1×107+Matrigel) or SUP-M2 tumor cells (5×106+Matrigel) in 0.1 ml of RPMI1640 medium supplemented with 10% FBS, 100 U/ml penicillin and […] streptomycin for tumor development. Mice were then assigned to groups such that the mean tumor volume was the same for each treatment group and time point. […] Vehicle was 25% HP-β-CD in water adjusted to pH 7.4.
Measurement Parameters: Study animals were monitored not only for tumor growth but also behavior such as mobility, food and water consumption (by cage side checking only), body weight (BW), eye/hair matting and any other abnormal effect. Any mortality and/or abnormal clinical signs was recorded. Sponsor was notified immediately if abnormal clinical signs, or if tolerability issues were observed. Body weights of all animals were measured and recorded twice per week. The measurement of tumor size was conducted twice weekly with a caliper and recorded. The tumor volume (mm3) was estimated using the formula: TV=a×b2/2, where “a” and “b” are long and short diameters of a tumor, respectively.

SU-DHL-1 cells = test: Caspase 3/7-Glo activity assay; assay type: cell-based; conditions: SU-DHL-1, FIG. 17
Protocol: Determination of apoptosis was determined using a Caspase 3/7-Glo assay.
• 1—Prepare the Caspase-Glo® 3/7 Reagent (Promega cat #G8090) • Equilibrate the Caspase-Glo® 3/7 Buffer and lyophilized Caspase-Glo® 3/7 Substrate to room temperature before use. • Transfer the contents of the Caspase-Glo® 3/7 Buffer bottle into the amber bottle containing Caspase-Glo® 3/7 Substrate. • Mix by swirling or inverting the contents until the substrate is thoroughly dissolved to form the Caspase-Glo® 3/7 Reagent • Aliquot and store at −20 • 2—If thawing the reagent, allow it to equilibrate to room temperature. Mix well. • 3—Remove white-walled 384-well plate containing treated cells from the incubator and allow plates to equilibrate to room temperature. • 4—Add Caspase-Glo® 3/7 Reagent to each well of the plate at 1:1 ratio with media. Because of the sensitivity of this assay, be careful not to touch pipet tips to the wells containing samples to avoid cross-contamination. Cover the plate with a plate sealer or lid. • 5—Gently mix contents of wells using a plate shaker at 300-500 rpm for 30 seconds. Incubate at room temperature for 30-60 minutes. Note: Temperature fluctuations will affect the luminescence reading. • 6—Measure the luminescence of each sample in a plate-reading luminometer as directed by the luminometer manufacturer.

SU-DHL-1 = test: STAT3 decrease needed for SU-DHL-1 apoptosis and cell growth inhibition (FIG. 8, 17); assay type: cell-based
Source text: FIG. 8 depicts that a decrease of STAT3 by 90% using I-103 is necessary to induce SU-DHL-1 apoptosis and inhibit cell growth.
FIG. 17 depicts that a decrease of STAT3 by 90% using I-174 and I-94 is necessary to induce SU-DHL-1 apoptosis and inhibit cell growth.

STAT3 = STAT3 (Homo sapiens, UniProt P40763); test: STAT3 degradation (DC50) in multiple ALK+ALCL cell lines; assay type: cell-based; conditions: dose response curves, FIG. 14
Chain of STAT3 (P40763 whole entry): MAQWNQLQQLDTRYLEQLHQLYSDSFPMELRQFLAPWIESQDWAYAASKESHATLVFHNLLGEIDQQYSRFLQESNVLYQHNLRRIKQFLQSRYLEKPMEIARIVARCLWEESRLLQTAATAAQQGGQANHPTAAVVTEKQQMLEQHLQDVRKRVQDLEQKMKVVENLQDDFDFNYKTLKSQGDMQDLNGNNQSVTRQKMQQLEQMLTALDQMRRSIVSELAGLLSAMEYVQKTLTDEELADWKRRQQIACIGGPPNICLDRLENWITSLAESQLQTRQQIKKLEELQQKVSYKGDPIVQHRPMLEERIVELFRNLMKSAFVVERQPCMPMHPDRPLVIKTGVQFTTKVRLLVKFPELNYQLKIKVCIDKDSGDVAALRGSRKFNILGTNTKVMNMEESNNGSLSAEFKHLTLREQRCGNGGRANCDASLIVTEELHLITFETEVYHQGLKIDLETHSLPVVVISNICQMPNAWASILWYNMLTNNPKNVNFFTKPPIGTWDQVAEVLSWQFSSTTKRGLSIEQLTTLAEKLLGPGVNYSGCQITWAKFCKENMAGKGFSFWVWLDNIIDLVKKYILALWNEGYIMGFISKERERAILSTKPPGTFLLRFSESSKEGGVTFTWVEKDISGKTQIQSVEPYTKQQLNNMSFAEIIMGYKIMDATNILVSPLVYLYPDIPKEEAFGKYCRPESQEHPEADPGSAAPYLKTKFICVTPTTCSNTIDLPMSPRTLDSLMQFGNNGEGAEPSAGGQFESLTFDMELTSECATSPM

## Cn1c(=O)n(C2CCC(=O)NC2=O)c2ccc(C[C@H]3CC[C@@H](CC(=O)N4CC[C@H]5CC[C@@H](C(=O)N[C@@H](CCC(N)=O)C(=O)NC(c6ccccc6)c6ccccc6)N5C(=O)[C@@H](NC(=O)c5cc6cc(C(=O)P(=O)(O)O)ccc6[nH]5)C4)CC3)cc21 (stereo partly drawn) [Compound I-174, 2-[[(5S,8S,10aR)-8-[[(1S)-3-carbamoyl-1-(diphenylmethylcarbamoyl)propyl]carbamoyl]-6-oxo-3-[2-[(1s,4s)-4-[[1-(2,6-dioxopiperidin-3-yl)-3-methyl-2-oxo-1,3-benzodiazol-5-yl]methyl]cyclohexyl]acetyl]-octahydropyrrolo[1,2-a][1,5]diazocin-5-yl]carbamoyl]-1H-indole-5-carbonylphosphonic acid]
SUP-M2 cells; 96 h, SUP-M2, ALCL (ALK+), Day 4, read-out: CTG, IC50 μM, Day 4
  IC50: 0.086 µM
SUP-M2 cells; SUP-M2, ALCL (ALK+), Day 4
  CTG (% Max inh), Day 4: (95) %
SUP-M2 cells; SUP-M2, FIG. 16
  cell proliferation: inhibit
SU-DHL-1 tumor cells; ALK+ALCL xenograph model SU-DHL-1, intermittent dosing, FIG. 19
  tumor regression: achieves tumor regression
SU-DHL-1 tumor cells; IP
  tumor volume, 5 days: A (A<500 mm^3)
  tumor volume, 10 days: A (A<500 mm^3)
  tumor volume, 15 days: A (A<500 mm^3)
  tumor volume, 20 days: A (A<500 mm^3)
SU-DHL-1 tumor cells; IV
  tumor volume, 5 days: A (A<500 mm^3)
  tumor volume, 10 days: A (A<500 mm^3)
  tumor volume, 15 days: A (A<500 mm^3)
  tumor volume, 20 days: A (A<500 mm^3)
SU-DHL-1 cells
  decrease of STAT3 necessary to induce SU-DHL-1 apoptosis and inhibit cell growth: 90%
SU-DHL-1
  decrease of STAT3 necessary to induce SU-DHL-1 apoptosis and inhibit cell growth: 90%
STAT3
  degradation in multiple ALK+ALCL cell lines: mediated degradation
